# Laboratory results reported in US20100298141A1, “SUBSTITUTED PYRIDINE N-OXIDE HERBICIDES” (E. I. DU PONT DE NEMOURS AND COMPANY, priority 2007, published 2010).
# What was measured:
# Conditions in all cases: scale 0 to 100
# eastern black nightshade = test: Test G preemergence test; assay type: in vivo, Solanum ptycanthum
# littleseed canarygrass = test: Test D preemergence test; assay type: in vivo, Phalaris minor
# Source text: (§1) Seeds of plant species selected from annual bluegrass (Poa annua), blackgrass (Alopecurus myosuroides), downy bromegrass (Bromus tectorum), field violet (Viola arvensis), green foxtail (Setaria viridis), Italian ryegrass (Lolium multiflorum), littleseed canarygrass (Phalaris minor), spring wheat (Triticum aestivum), wild oat (Avena fatua), […]), winter barley (Hordeum vulgare), and winter wheat (Triticum aestivum) were planted and treated preemergence with test chemicals formulated in a non-phytotoxic solvent mixture which included a surfactant. […] A dash (-) response means no test result.
# spring wheat = test: Test D preemergence test; assay type: in vivo, Triticum aestivum
# Source text: as §1
# winter wheat = test: Test D preemergence test; assay type: in vivo, Triticum aestivum
# Source text: as §1
# sorghum = test: Test G preemergence test; assay type: in vivo, Sorghum vulgare
# corn = test: Test G preemergence test; assay type: in vivo, Zea mays
# yellow foxtail = test: Test G preemergence test; assay type: in vivo, Pennisetum glaucum
# tall waterhemp = test: Test G preemergence test; assay type: in vivo, Amaranthus tuberculatos
# yellow nutsedge = test: Test G preemergence test; assay type: in vivo, Cyperus esculentus
# field violet = test: Test D preemergence test; assay type: in vivo, Viola arvensis
# Source text: as §1
# large crabgrass = test: Test G preemergence test; assay type: in vivo, Digitaria sanguinalis
# wild oat = test: Test D preemergence test; assay type: in vivo, Avena fatua
# Source text: as §1
# blackgrass = test: Test D preemergence test; assay type: in vivo, Alopecurus myosuroides
# Source text: as §1
# woolly cupgrass = test: Test G preemergence test; assay type: in vivo, Eriochloa villosa
# cotton = test: Test G preemergence test; assay type: in vivo, Gossypium hirsutum
# goosegrass = test: Test G preemergence test; assay type: in vivo, Eleusine indica
# soybean = test: Test G preemergence test; assay type: in vivo, Glycine max
# broadleaf signalgrass = test: Test G preemergence test; assay type: in vivo, Brachiaria platyphylla
# annual bluegrass = test: Test D preemergence test; assay type: in vivo, Poa annua
# Source text: as §1
# lambsquarters = test: Test G preemergence test; assay type: in vivo, Chenopodium album
# Italian ryegrass = test: Test D preemergence test; assay type: in vivo, Lolium multiflorum
# Source text: as §1
# itchgrass = test: Test G preemergence test; assay type: in vivo, Rottboellia cochinchinensis
smiles,measurement,setting,value
Cc1cc[n+]([O-])c(S(=O)(=O)C(C)c2c(C(F)(F)F)nn(C)c2Cl)c1 (racemic) [Compound 14],"Plant response rating, Nightshade",eastern black nightshade; 31 g ai/ha,0
same,"Plant response rating, Nightshade",eastern black nightshade; 62 g ai/ha,0
same,"Plant response rating, Nightshade",eastern black nightshade; 125 g ai/ha,0
same,"Plant response rating, Nightshade",eastern black nightshade; 250 g ai/ha,55
same,"Plant response rating, Canarygrass",littleseed canarygrass; 31 g ai/ha,0
same,"Plant response rating, Canarygrass",littleseed canarygrass; 62 g ai/ha,0
same,"Plant response rating, Canarygrass",littleseed canarygrass; 125 g ai/ha,15
same,"Plant response rating, Canarygrass",littleseed canarygrass; 250 g ai/ha,20
same,"Plant response rating, Wheat, Spring",spring wheat; 31 g ai/ha,0
same,"Plant response rating, Wheat, Spring",spring wheat; 62 g ai/ha,0
same,"Plant response rating, Wheat, Spring",spring wheat; 125 g ai/ha,15
same,"Plant response rating, Wheat, Spring",spring wheat; 250 g ai/ha,20
same,"Plant response rating, Wheat, Winter",winter wheat; 31 g ai/ha,0
same,"Plant response rating, Wheat, Winter",winter wheat; 62 g ai/ha,0
same,"Plant response rating, Wheat, Winter",winter wheat; 125 g ai/ha,20
same,"Plant response rating, Wheat, Winter",winter wheat; 250 g ai/ha,35
same,"Plant response rating, Sorghum",sorghum; 31 g ai/ha,0
same,"Plant response rating, Sorghum",sorghum; 62 g ai/ha,0
same,"Plant response rating, Sorghum",sorghum; 125 g ai/ha,20
same,"Plant response rating, Sorghum",sorghum; 250 g ai/ha,65
same,"Plant response rating, Corn",corn; 31 g ai/ha,0
same,"Plant response rating, Corn",corn; 62 g ai/ha,0
same,"Plant response rating, Corn",corn; 125 g ai/ha,0
same,"Plant response rating, Corn",corn; 250 g ai/ha,35
same,"Plant response rating, Foxtail, Yellow",yellow foxtail; 31 g ai/ha,0
same,"Plant response rating, Foxtail, Yellow",yellow foxtail; 62 g ai/ha,0
same,"Plant response rating, Foxtail, Yellow",yellow foxtail; 125 g ai/ha,95
same,"Plant response rating, Foxtail, Yellow",yellow foxtail; 250 g ai/ha,95
same,"Plant response rating, Waterhemp",tall waterhemp; 31 g ai/ha,0
same,"Plant response rating, Waterhemp",tall waterhemp; 62 g ai/ha,0
same,"Plant response rating, Waterhemp",tall waterhemp; 125 g ai/ha,0
same,"Plant response rating, Waterhemp",tall waterhemp; 250 g ai/ha,40
same,"Plant response rating, Nutsedge, Yellow",yellow nutsedge; 31 g ai/ha,0
same,"Plant response rating, Nutsedge, Yellow",yellow nutsedge; 62 g ai/ha,0
same,"Plant response rating, Nutsedge, Yellow",yellow nutsedge; 125 g ai/ha,0
same,"Plant response rating, Nutsedge, Yellow",yellow nutsedge; 250 g ai/ha,65
same,"Plant response rating, Field Violet",field violet; 31 g ai/ha,0
same,"Plant response rating, Field Violet",field violet; 62 g ai/ha,0
same,"Plant response rating, Field Violet",field violet; 125 g ai/ha,0
same,"Plant response rating, Field Violet",field violet; 250 g ai/ha,45
same,"Plant response rating, Crabgrass, Large",large crabgrass; 31 g ai/ha,0
same,"Plant response rating, Crabgrass, Large",large crabgrass; 62 g ai/ha,45
same,"Plant response rating, Crabgrass, Large",large crabgrass; 125 g ai/ha,100
same,"Plant response rating, Crabgrass, Large",large crabgrass; 250 g ai/ha,100
same,"Plant response rating, Oat, Wild",wild oat; 31 g ai/ha,0
same,"Plant response rating, Oat, Wild",wild oat; 62 g ai/ha,0
same,"Plant response rating, Oat, Wild",wild oat; 125 g ai/ha,0
same,"Plant response rating, Oat, Wild",wild oat; 250 g ai/ha,20
same,"Plant response rating, Blackgrass",blackgrass; 31 g ai/ha,0
same,"Plant response rating, Blackgrass",blackgrass; 62 g ai/ha,40
same,"Plant response rating, Blackgrass",blackgrass; 125 g ai/ha,40
same,"Plant response rating, Blackgrass",blackgrass; 250 g ai/ha,95
same,"Plant response rating, Cupgrass, Woolly",woolly cupgrass; 31 g ai/ha,0
same,"Plant response rating, Cupgrass, Woolly",woolly cupgrass; 62 g ai/ha,0
same,"Plant response rating, Cupgrass, Woolly",woolly cupgrass; 125 g ai/ha,70
same,"Plant response rating, Cupgrass, Woolly",woolly cupgrass; 250 g ai/ha,95
same,"Plant response rating, Cotton",cotton; 31 g ai/ha,0
same,"Plant response rating, Cotton",cotton; 62 g ai/ha,0
same,"Plant response rating, Cotton",cotton; 125 g ai/ha,0
same,"Plant response rating, Cotton",cotton; 250 g ai/ha,0
same,"Plant response rating, Goosegrass",goosegrass; 31 g ai/ha,85
same,"Plant response rating, Goosegrass",goosegrass; 62 g ai/ha,95
same,"Plant response rating, Goosegrass",goosegrass; 125 g ai/ha,100
same,"Plant response rating, Goosegrass",goosegrass; 250 g ai/ha,100
same,"Plant response rating, Soybean",soybean; 31 g ai/ha,0
same,"Plant response rating, Soybean",soybean; 62 g ai/ha,0
same,"Plant response rating, Soybean",soybean; 125 g ai/ha,0
same,"Plant response rating, Soybean",soybean; 250 g ai/ha,0
same,"Plant response rating, Signalgrass",broadleaf signalgrass; 31 g ai/ha,0
same,"Plant response rating, Signalgrass",broadleaf signalgrass; 62 g ai/ha,15
same,"Plant response rating, Signalgrass",broadleaf signalgrass; 125 g ai/ha,20
same,"Plant response rating, Signalgrass",broadleaf signalgrass; 250 g ai/ha,85
same,"Plant response rating, Bluegrass",annual bluegrass; 31 g ai/ha,0
same,"Plant response rating, Bluegrass",annual bluegrass; 62 g ai/ha,0
same,"Plant response rating, Bluegrass",annual bluegrass; 125 g ai/ha,65
same,"Plant response rating, Bluegrass",annual bluegrass; 250 g ai/ha,100
same,"Plant response rating, Lambsquarters",lambsquarters; 31 g ai/ha,0
same,"Plant response rating, Lambsquarters",lambsquarters; 62 g ai/ha,0
same,"Plant response rating, Lambsquarters",lambsquarters; 125 g ai/ha,0
same,"Plant response rating, Lambsquarters",lambsquarters; 250 g ai/ha,40
same,"Plant response rating, Ryegrass, Italian",Italian ryegrass; 31 g ai/ha,0
same,"Plant response rating, Ryegrass, Italian",Italian ryegrass; 62 g ai/ha,0
same,"Plant response rating, Ryegrass, Italian",Italian ryegrass; 125 g ai/ha,0
same,"Plant response rating, Ryegrass, Italian",Italian ryegrass; 250 g ai/ha,100
same,"Plant response rating, Itchgrass",itchgrass; 31 g ai/ha,0
same,"Plant response rating, Itchgrass",itchgrass; 62 g ai/ha,0
same,"Plant response rating, Itchgrass",itchgrass; 125 g ai/ha,15
same,"Plant response rating, Itchgrass",itchgrass; 250 g ai/ha,20
